Results taken from patent US5595983A, “Substituted piperazine 2-carboxylic acids useful in the treatment of central nervous system disorders” (British Technology Group Limited, priority 1984, dated 1997).
Where two headings read alike, the source gives them in different places.

How the values were obtained:
[1] = tested on: motoneurones in the spinal cord; experiment: Depression of monosynaptic (MS) and polysynaptic (PS) excitation of motoneurones in isolated hemisected spinal cord, elicited by dorsal root stimulation; type: cell-based, rat; conditions: for inhibition at 500 µM: test conc. 500 μM; for inhibition at 100 µM: test conc. 100 μM
Source text: To evaluate actions of substances at amino acid receptors on nerve cells (neurones), the substances may be tested on spinal cord neurones, which have similar characteristics to nerve cells in the brain.
^1 Monosynaptic (MS) and polysynaptic (PS) excitation of motoneurones
in the spinal cord from 4-8 day old rats was elicited by electrical
stimulation of a dorsal root and recorded from the corresponding ventral
root. Figures relate to the depression of the magnitude of the two
components as measured respectively from oscilloscope traces and chart

[2] = tested on: 3-mercaptopropionate-induced convulsions; experiment: Anticonvulsant activity against 3-mercaptopropionate-induced convulsions in mice; type: in vivo; conditions: for Anti-convulsant Activity (mice): relative anticonvulsant potency: mice injected with 3-MP 100 mg/kg, 3-MP and phosphonates subcutaneously, relative to AP7 = 1.0
Description: ^2 Relative anticonvulsant potencies of substances in mice injected
with 3mercaptopropionic acid (3MP), 100 mg/kg; 3MP and the phosphonates

[3] = tested on: ventral root synaptic potentials in spinal cord; experiment: Relative potency as depressants of spontaneous and dorsal root-evoked ventral root synaptic potentials in spinal cord of 4-day-old rat; type: cell-based; conditions: 4-day-old rat spinal cord, bath administration, relative to AP5 = 1.0
Source text: (§1) ^1 Relative potencies of substances as antagonists of NMDAinduced
(§2) motoneuronal depolarization and as depressants of spontaneous and dorsal
(§3) rootevoked ventral root synaptic potentials in spinal cord of 4day-old
(§4) rat; bath administration of drugs.
(§5) 1 Relative potencies of substances as antagonists of NMDA-induced motoneuronal depolarization and as depressants of spontaneous and dorsal root-evoked ventral root synaptic potentials in spinal cord of 4-day-old rat; bath administration of drugs.

neuronal NMDA receptors = experiment: Relative potency as antagonists of NMDA-induced motoneuronal depolarization in spinal cord of 4-day-old rat; type: cell-based; conditions: 4-day-old rat spinal cord; bath administration; relative to AP5 = 1.0 (higher = more potent)
Source text: as §1, §2, §3, §4, §5

[4] = tested on: N-methyl-D-aspartate (NMDA) receptors; experiment: Reversal of NMDA-induced motoneuronal depolarization, isolated 4-8 day old rat spinal cord; type: cell-based; conditions: Table 2
kainate (K) receptors = experiment: Reversal of kainate-induced motoneuronal depolarization, isolated 4-8 day old rat spinal cord; type: cell-based; conditions: Table 2
[5] = tested on: quisqualate (Q) receptors; experiment: Reversal of quisqualate-induced motoneuronal depolarization, isolated 4-8 day old rat spinal cord; type: cell-based; conditions: Table 2
[6] = monosynaptic component, 4-8 day old rat spinal cord, read-out: Synaptic Excitation Percent depression MS
[7] = polysynaptic component, 4-8 day old rat spinal cord, read-out: Synaptic Excitation Percent depression PS

With NC(CCCP(=O)(O)O)C(=O)O (racemic) [AP5, 2-amino-5-phosphonopentanoic acid, reference compound] the inhibition at 2 µM ([1]; polysynaptic component, test conc. 2 μM, 4-8 day old rat spinal cord, read-out: Synaptic Excitation Percent depression PS) was 27% and the “Anti-convulsant Activity (mice): relative anticonvulsant potency” value [2] was 0.1.

NC(CCCCCP(=O)(O)O)C(=O)O (racemic) [AP7, 2-amino-7-phosphonoheptanoic acid, reference compound] was tested, and the inhibition at 3 µM ([1]; polysynaptic component, test conc. 3 μM, 4-8 day old rat spinal cord, read-out: Synaptic Excitation Percent depression PS) was 28%, the “Depression of synaptic excitation in rat spinal cord: relative potency (Synaptic)” value [3] was 0.75 and the “Depression of NMDA-induced excitation in rat spinal cord: relative potency (NMDA)” value (neuronal NMDA receptors) was 0.75.

O=C(O)C1CN(CCCP(=O)(O)O)CCN1 (racemic) [CPP, 3-((±)-2-carboxypiperazin-4-yl)propyl-1-phosphonic acid] was tested, and the “Potency as antagonist of polysynaptic spinal excitation compared with AP5 and AP7” value ([1]; Table 2) was “more potent”, the inhibition at 0.5 µM ([1]; polysynaptic component, test conc. 0.5 μM (printed 0 · 5), 4-8 day old rat spinal cord, read-out: Synaptic Excitation Percent depression PS) was 28% and the “Depression of synaptic excitation in rat spinal cord: relative potency (Synaptic)” value [3] was 4. The “Depression of NMDA-induced excitation in rat spinal cord: relative potency (NMDA)” value (neuronal NMDA receptors) was 6, the “Potency as antagonist of NMDA compared with AP5 and AP7” value [4] was “more potent” and the “Anticonvulsant activity compared with AP7” value ([2]; 3-mercaptopropionate-induced convulsions in mice, from Table 3) was “significantly higher anticonvulsant activity than AP7”. The “Anti-convulsant Activity (mice): relative anticonvulsant potency” value [2] was 2.5-5.0.

In the case of O=C(O)C1CN(CCCS(=O)(=O)O)CCN1 (racemic) [CPS, 3-(±)-2-carboxypiperazin-4-yl)-propane-1-sulphonic acid], the inhibition at 500 µM [1, 6] is reported as 6% and the inhibition at 500 µM [1, 7] is reported as 32%.

For O=C(O)C1NCCN(C(=O)c2ccc(Br)cc2)C1C(=O)O (centres unmarked) [BBP, 4-(4-bromobenzoyl)-piperazine-2,3-dicarboxylic acid], the “Potency as antagonist of kainate-induced depolarizations compared with γDGG” value (kainate (K) receptors) was “more potent antagonist”, the “Potency as depressant of monosynaptic excitation compared with γDGG” value ([1]; Table 2) was “more potent as a depressant of monosynaptic excitation” and the inhibition at 100 µM [1, 6] was 24%. The inhibition at 100 µM [1, 7] was 8% and the “Potency as antagonist of quisqualate-induced depolarizations compared with γDGG” value [5] was “more potent antagonist”.

N[C@H](CCC(=O)NCC(=O)O)C(=O)O [γDGG, γ-D-glutamylglycine, reference compound] was tested, and the inhibition at 700 µM ([1]; monosynaptic component, test conc. 700 μM, 4-8 day old rat spinal cord, read-out: Synaptic Excitation Percent depression MS) was 24%.
